The values that follow come from patent publication US20260001914A1, “MACROCYCLIC PEPTIDES TARGETING KRAS” (Merck Sharp & Dohme LLC, priority 2022, published 2026).

*1 amine or outer side, *2 acyl side, *3 side chain or, on linkers, in order; H or OH if unused. Where a SMILES comes first, the peptide text is derived from it. Bridges are numbered along the chain shown (N, C = ends). [ ]: non-standard residue; d: D form. X18 = CNC(=N)N(C)c1ccc(C[C@H](N[*:1])C(=O)[*:2])cc1; X76 = CN(CCC[C@@H](C(=O)[*:2])N(C)[*:1])S(C)(=O)=O; X22 = CNC(=N)N(C)CCC[C@@H](C(=O)[*:2])N(C)[*:1]; X29 = CC(=O)N(C)CCC[C@@H](C(=O)[*:2])N(C)[*:1]; NMe3Pal(6-Me) = CN[C@@H](Cc1ccc(C)nc1)C(=O)O; X36 = CN([C@@H](Cc1cnn(C)c1)C(=O)[*:2])[*:1]; X3 = CN([C@@H](Cc1cncnc1)C(=O)[*:2])[*:1]; X26 = Cn1cc(C[C@H](N[*:1])C(=O)[*:2])cn1; X10 = CS(=O)(=O)CCCCN(CC(=O)[*:2])[*:1]; Phe(2-F) = N[C@@H](Cc1ccccc1F)C(=O)O; NMe3Pal = CN[C@@H](Cc1cccnc1)C(=O)O; X1 = O=C(C12CC(CN[*:1])(C1)C2)[*:2]; NMeAad = CN[C@@H](CCCC(=O)O)C(=O)O; PhLac = O=C(O)[C@@H](O)Cc1ccccc1; 3Pal = N[C@@H](Cc1cccnc1)C(=O)O; NMeAbu = CC[C@H](NC)C(=O)O; αMeC = C[C@](N)(CS)C(=O)O; NMeA = CN[C@@H](C)C(=O)O; Nle = CCCC[C@H](N)C(=O)O

The target of the assay is KRAS-G12D protein (Homo sapiens, UniProt P01116, G12D). Put plainly: SOS-mediated nucleotide exchange assay (BODIPY-GDP / Tb-streptavidin TR-FRET). It is filed as biochemical. Background: Time-resolved FRET reads energy transfer from a long-lived donor to a nearby acceptor.
Sequence of KRAS-G12D protein (P01116 1-188 isoform P01116-2 G12D): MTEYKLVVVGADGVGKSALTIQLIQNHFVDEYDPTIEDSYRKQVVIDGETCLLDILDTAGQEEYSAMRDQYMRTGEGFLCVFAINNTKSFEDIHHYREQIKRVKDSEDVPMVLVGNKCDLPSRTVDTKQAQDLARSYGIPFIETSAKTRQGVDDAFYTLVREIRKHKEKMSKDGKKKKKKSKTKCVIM
In general, EC50 refers to the concentration giving half of the maximal effect. The low end stands for an effect from little substance, the high end for a need for much substance. `CCCC[C@@H]1NC(=O)[C@H](Cc2cccnc2)NC(=O)[C@H](CCCN(C)C(=N)NC)N(C)C(=O)[C@H](Cc2ccccc2)OC(=O)CSC[C@@](C)(C(N)=O)NC(=O)[C@H](Cc2cccnc2)N(C)C(=O)[C@H](CCCC)NC(=O)[C@H](Cc2ccccc2F)NC1=O` [compound 396, cyclo(FLac-NMeArg1MeMe-3Pal-Nle-Phe2F-Nle-NMe3Pal-aMeCl-ClAc)] ({CH2CO}-[PhLac][X22][3Pal][Nle][Phe(2-F)][Nle][NMe3Pal][αMeC]-NH2; thioether N-8) returned an EC50 of 1.8 nM.

Regarding `CCCC[C@@H]1NC(=O)[C@H](Cc2ccc(N(C)C(=N)NC)cc2)NC(=O)[C@H](C)N(C)C(=O)[C@H](Cc2ccccc2)OC(=O)CSC[C@@](C)(C(N)=O)NC(=O)[C@H](Cc2cccnc2)N(C)C(=O)[C@H](CCCC)NC(=O)[C@H](Cc2ccccc2F)NC1=O` [compound 397, cyclo(FLac-NMeA-Phe4GnMeMe-Nle-Phe2F-Nle-NMe3Pal-aMeCl-ClAc)] ({CH2CO}-[PhLac][NMeA][X18][Nle][Phe(2-F)][Nle][NMe3Pal][αMeC]-NH2; thioether N-8), the concentration for a half-maximal effect (EC50) was 2.73 nM. The value for `CCCC[C@@H]1NC(=O)[C@H](Cc2cccnc2)NC(=O)[C@H](C)N(C)C(=O)[C@H](Cc2ccccc2)OC(=O)CSC[C@@](C)(C(N)=O)NC(=O)[C@H](Cc2cccnc2)N(C)C(=O)[C@H](CCCC)NC(=O)[C@H](Cc2ccccc2F)NC1=O` [compound 398, cyclo(FLac-NMeA-3Pal-Nlc-Phe2F-Nle-NMe3Pal-aMeCl-ClAc)] ({CH2CO}-[PhLac][NMeA][3Pal][Nle][Phe(2-F)][Nle][NMe3Pal][αMeC]-NH2; thioether N-8) was 3.81 nM; that for `CCCC[C@@H]1NC(=O)[C@H](Cc2cnn(C)c2)NC(=O)[C@H](C)N(C)C(=O)[C@H](Cc2ccccc2)OC(=O)C23CC(CNC(=O)[C@H](Cc4cccnc4)N(C)C(=O)[C@H](CCCC)NC(=O)[C@H](Cc4ccccc4F)NC1=O)(C2)C3` [compound 400, cyclo(FLac-NMeA-Ala4PyzlMe-Nle-Phe2F-Nle-NMe3Pal-amBCP)] (cyclo([NMe3Pal][X1][PhLac][NMeA][X26][Nle][Phe(2-F)][Nle])) was 14 nM. In turn, `CCCC[C@@H]1NC(=O)[C@H](Cc2cccnc2)NC(=O)[C@H](C)N(C)C(=O)[C@H](Cc2ccccc2)OC(=O)C23CC(CNC(=O)[C@H](Cc4cncnc4)N(C)C(=O)[C@H](CCCC)NC(=O)[C@H](Cc4ccccc4F)NC1=O)(C2)C3` [compound 401, cyclo(FLac-NMeA-3Pal-Nle-Phe2F-Nle-NMeAlaPyrim-amBCP)] (cyclo([3Pal][Nle][Phe(2-F)][Nle][X3][X1][PhLac][NMeA])) came in with an EC50 of 29 nM. `CCCC[C@@H]1NC(=O)[C@H](Cc2cccnc2)NC(=O)[C@H](C)N(C)C(=O)[C@H](Cc2ccccc2)OC(=O)C23CC(CNC(=O)[C@H](Cc4ccc(C)nc4)N(C)C(=O)[C@H](CCCC)NC(=O)[C@H](Cc4ccccc4F)NC1=O)(C2)C3` [compound 402, cyclo(FLac-NMeA-3Pal-Nle-Phe2F-Nle-NMe3Pal4Me-amBCP)] (cyclo([3Pal][Nle][Phe(2-F)][Nle][NMe3Pal(6-Me)][X1][PhLac][NMeA])) registered an EC50 of 18 nM. `CCCC[C@@H]1NC(=O)[C@H](Cc2cccnc2)NC(=O)[C@H](C)N(C)C(=O)[C@H](Cc2ccccc2)OC(=O)C23CC(CNC(=O)[C@H](Cc4cnn(C)c4)N(C)C(=O)[C@H](CCCC)NC(=O)[C@H](Cc4ccccc4F)NC1=O)(C2)C3` [compound 403, cyclo(FLac-NMeA-3Pal-Nle-Phe2F-Nle-NMeAla4PyzlMe-amBCP)] (cyclo([3Pal][Nle][Phe(2-F)][Nle][X36][X1][PhLac][NMeA])): a half-maximal effect (EC50) was put at 17 nM. Next, `CCCC[C@@H]1NC(=O)[C@H](Cc2cccnc2)NC(=O)[C@H](CC)N(C)C(=O)[C@H](Cc2ccccc2)OC(=O)C23CC(CNC(=O)[C@H](Cc4cccnc4)N(C)C(=O)[C@H](CCCC)NC(=O)[C@H](Cc4ccccc4F)NC1=O)(C2)C3` [compound 404, cyclo(FLac-NMeAbu-3Pal-Nle-Phe2F-Nle-NMe3Pal-amBCP)] (cyclo([3Pal][Nle][Phe(2-F)][Nle][NMe3Pal][X1][PhLac][NMeAbu])): 29 nM; `CCCC[C@@H]1NC(=O)[C@H](Cc2cccnc2)NC(=O)[C@H](CCCN(C)C(C)=O)N(C)C(=O)[C@H](Cc2ccccc2)OC(=O)C23CC(CNC(=O)[C@H](Cc4cccnc4)N(C)C(=O)[C@H](CCCC)NC(=O)[C@H](Cc4ccccc4F)NC1=O)(C2)C3` [compound 405, cyclo(FLac-NMeOrnAc-3Pal-Nle-Phe2F-Nle-NMe3Pal-amBCP)] (cyclo([3Pal][Nle][Phe(2-F)][Nle][NMe3Pal][X1][PhLac][X29])): 50 nM. `CCCC[C@@H]1NC(=O)[C@H](Cc2cccnc2)NC(=O)[C@H](CCCN(C)S(C)(=O)=O)N(C)C(=O)[C@H](Cc2ccccc2)OC(=O)C23CC(CNC(=O)[C@H](Cc4cccnc4)N(C)C(=O)[C@H](CCCC)NC(=O)[C@H](Cc4ccccc4F)NC1=O)(C2)C3` [compound 406, cyclo(FLac-NMeOmSuf-3Pal-Nle-Phe2F-Nle-NMe3Pal-amBCP)] (cyclo([3Pal][Nle][Phe(2-F)][Nle][NMe3Pal][X1][PhLac][X76])) came in with an EC50 of 26 nM. In turn, `CCCC[C@@H]1NC(=O)[C@H](Cc2cccnc2)NC(=O)CN(CCCCS(C)(=O)=O)C(=O)[C@H](Cc2ccccc2)OC(=O)C23CC(CNC(=O)[C@H](Cc4cccnc4)N(C)C(=O)[C@H](CCCC)NC(=O)[C@H](Cc4ccccc4F)NC1=O)(C2)C3` [compound 407, cyclo(FLac-NOHmsbGly-3Pal-Nle-Phe2F-Nle-NMe3Pal-amBCP)] (cyclo([3Pal][Nle][Phe(2-F)][Nle][NMe3Pal][X1][PhLac][X10])) displayed an EC50 of 367 nM. For `CCCC[C@@H]1NC(=O)[C@H](Cc2cccnc2)NC(=O)[C@H](CCCC(=O)N(C)C)N(C)C(=O)[C@H](Cc2ccccc2)OC(=O)C23CC(CNC(=O)[C@H](Cc4cccnc4)N(C)C(=O)[C@H](CCCC)NC(=O)[C@H](Cc4ccccc4F)NC1=O)(C2)C3` [compound 408, cyclo(FLac-hQdm-3Pal-Nle-Phe2F-Nle-NMe3Pal-amBCP)] (cyclo([3Pal][Nle][Phe(2-F)][Nle][NMe3Pal][X1][PhLac][NMeAad](NMe2))), the EC50 turned out to be 161 nM.
